Reference: patent US4939092A, “Proteinaceous derivatives containing iron in highly bioavailable form, preparation thereof and pharmaceutical compositions containing them” (Unibois S.p.A., priority 1987, dated 1990)
Read-outs that look alike come from different tables or passages of the source.

Legend:
[1] = Gastric tolerability: values of the lesions found on the gastric mucosa; details: for value of the lesions on the gastric mucosa / value of the lesions on the gastric mucosa, Media (mean): oral t.i.d., 100 mg/kg iron; for value of the lesions on the gastric mucosa, Media (mean): mean of 7 animals
Experimental: (§1) In the aim of correctly evaluating activity, bio-availability and toxicity of the products under exam, they were suitably vehicled by means of dissolution in mixtures of H2 O/propylene glycol/sorbitol, in equal proportions, so as to obtain for the experimental tests solutions at identical Fe^+++ titre (4 mg/ml).

[2] = Antianemic activity (iron-deficient diet); assay type: in vivo, rats; details: iron-deficient diet + substance
Experimental: as §1

[3] = Acute toxicity after oral administration in the male rat; assay type: in vivo; details: for N° DEAD ANIMALS: 10 animals
Excerpt: ACUTE TOXICITY OF UB 1004 AFTER ORAL
ADMINISTRATION IN THE MALE RAT

[4] = background; cited from earlier work
[5] = rat, in vivo, po, 100 mg/kg
Experimental: as §1

[6] = oral, background; cited from earlier work
[7] = Solubility / precipitation; assay type: physicochemical
[8] = oral, 25 mg/Kg Fe = 367.5 mg/Kg
[9] = oral, 100 mg/Kg Fe = 1470 mg/Kg
[10] = oral, 200 mg/Kg Fe = 2940 mg/Kg
[11] = oral, 400 mg/Kg Fe = 5880 mg/Kg

| Compound | value of the lesions on the gastric mucosa ([1]; animal 1) | value of the lesions on the gastric mucosa ([1]; animal 2) | value of the lesions on the gastric mucosa ([1]; animal 3) | value of the lesions on the gastric mucosa ([1]; animal 4) | value of the lesions on the gastric mucosa ([1]; animal 5) | value of the lesions on the gastric mucosa ([1]; animal 6) | value of the lesions on the gastric mucosa ([1]; animal 7) | value of the lesions on the gastric mucosa, Media (mean) [1] | ERYTHROCYTES ([2]; 7 (time unit not given)) | HEMOGLOBIN ([2]; 7 (time unit not given)) | SYDEREMIA ([2]; 7 (time unit not given)) | ERYTHROCYTES ([2]; 14 (time unit not given)) | HEMOGLOBIN ([2]; 14 (time unit not given)) | SYDEREMIA ([2]; 14 (time unit not given)) | ERYTHROCYTES ([2]; 21 (time unit not given)) | HEMOGLOBIN ([2]; 21 (time unit not given)) | SYDEREMIA ([2]; 21 (time unit not given)) | Solubility at pH 8 [7] | other results |
| --- | --- | --- | --- | --- | --- | --- | --- | --- | --- | --- | --- | --- | --- | --- | --- | --- | --- | --- | --- |
| O=S(=O)([O-])[O-].[Fe+2] [FERROUS SULFATE, Ferrous Sulphate, reference compound] | 1 | 2 | 1 | 1 | 3 | 1 | 3 | 1.70 | 7.07 ± 0.76 10^6 /mm^3 | 14.38 ± 1.91 g/100 ml | 247.6 ± 87.0 μg/100 ml | 7.34 ± 0.46 10^6 /mm^3 | 15.63 ± 0.33 g/100 ml | 198.4 ± 52.2 μg/100 ml | 6.94 ± 0.42 10^6 /mm^3 | 14.09 ± 1.50 g/100 ml | 171.0 ± 19.9 μg/100 ml |  | gastric damage ([1]; conclusions): harmful at the gastric level; toxicity ([3]; conclusions): considerably toxic |
| Ferritin |  |  |  |  |  |  |  |  |  | 13.88 ± 0.93 g/100 ml | 196.3 ± 88.9 μg/100 ml | 6.99 ± 0.58 10^6 /mm^3 | 15.46 ± 0.93 g/100 ml | 217.1 ± 52.7 μg/100 ml | 6.99 ± 0.13 10^6 /mm^3 | 14.43 ± 1.12 g/100 ml | 227.6 ± 25.7 μg/100 ml |  | water solubility [4]: hydrosoluble; value of the lesions on the gastric mucosa, Media (mean) [5]: 0.28; gastrointestinal side-effects [6]: does not have gastrointestinal side-effects |
| UB 1004: iron (ferric) complex of lysozyme glutarate, obtained in Example 1(b) with ferric glycerophosphate | 0 | 0 | 0 | 0 | 0 | 0 | 0 | 0 | 7.20 ± 0.58 10^6 /mm^3 | 14.43 ± 1.13 g/100 ml | 178.6 ± 57.1 μg/100 ml | 7.20 ± 0.48 10^6 /mm^3 | 15.70 ± 1.00 g/100 ml | 177.5 ± 42.8 μg/100 ml | 7.13 ± 0.26 10^6 /mm^3 | 15.58 ± 0.97 g/100 ml | 184.3 ± 31.8 μg/100 ml | Complete | Precipitation with (NH4)2SO4 at 30% ([7]; (NH4)2SO4 30%): Complete; Solubility of the precipitate with (NH4)2SO4 in water ([7]; water): Complete; % DEATH-RATE [3, 8]: 0.00%; N° DEAD ANIMALS [3, 8]: 0; % DEATH-RATE ([3]; oral, 50 mg/Kg Fe = 735 mg/Kg): 0.00%; N° DEAD ANIMALS ([3]; oral, 50 mg/Kg Fe = 735 mg/Kg): 0; % DEATH-RATE [3, 9]: 0.00%; N° DEAD ANIMALS [3, 9]: 0; % DEATH-RATE [3, 10]: 0.00%; N° DEAD ANIMALS [3, 10]: 0; % DEATH-RATE [3, 11]: 0.00%; N° DEAD ANIMALS [3, 11]: 0; DL50 ([3]; oral, male rat, up to 400 mg/Kg Fe): NOT DETERMINABLE |
| lysozyme glutarate: lysozyme acylated with glutaric anhydride, Example 1(a) |  |  |  |  |  |  |  |  |  |  |  |  |  |  |  |  |  | Complete | Solubility at pH 3 ([7]; pH 3): nil |
